#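 Results reflect a 48-hour exposure of cells in 96-well plates to compound at five concentrations. Here, GI50 denotes the concentration required for 50% inhibition of growth. At the TGI there is no net growth.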
# Tests used:
# Assay in all cases: inhibition of tumour cell growth, NCI panel, 48 h
# 786-0 renal = test system: 786-0 renal
# A498 renal = test system: A498 renal
# A549 NSCLC = test system: A549 NSCLC
# ACHN renal = test system: ACHN renal
# BT-549 breast = test system: BT-549 breast
# CAKI-1 renal = test system: CAKI-1 renal
# CCRF-CEM leukemia = test system: CCRF-CEM leukemia
# COLO 205 colon = test system: COLO 205 colon
# EKVX NSCLC = test system: EKVX NSCLC
# HCC-2998 colon = test system: HCC-2998 colon
# HCT-116 colon = test system: HCT-116 colon
# HCT-15 colon = test system: HCT-15 colon
# HL-60(TB) leukemia = test system: HL-60(TB) leukemia
# HOP-62 NSCLC = test system: HOP-62 NSCLC
# HS 578T breast = test system: HS 578T breast
# HT29 colon = test system: HT29 colon
# IGROV1 ovarian = test system: IGROV1 ovarian
# K-562 leukemia = test system: K-562 leukemia
# KM12 colon = test system: KM12 colon
# LOX IMVI melanoma = test system: LOX IMVI melanoma
# M14 melanoma = test system: M14 melanoma
# MALME-3M melanoma = test system: MALME-3M melanoma
# MCF7 breast = test system: MCF7 breast
# MDA-MB-231 breast = test system: MDA-MB-231 breast
# MDA-MB-435 = test system: MDA-MB-435
# MOLT-4 leukemia = test system: MOLT-4 leukemia
# NCI-H226 lung = test system: NCI-H226 lung
# NCI-H23 lung = test system: NCI-H23 lung
# NCI-H460 lung = test system: NCI-H460 lung
# NCI/ADR-RES ovarian = test system: NCI/ADR-RES ovarian
# OVCAR-3 ovarian = test system: OVCAR-3 ovarian
# OVCAR-4 ovarian = test system: OVCAR-4 ovarian
# OVCAR-5 ovarian = test system: OVCAR-5 ovarian
# OVCAR-8 ovarian = test system: OVCAR-8 ovarian
# PC-3 prostate = test system: PC-3 prostate
# RPMI-8226 leukemia = test system: RPMI-8226 leukemia
# RXF 393 renal = test system: RXF 393 renal
# SF-268 CNS = test system: SF-268 CNS
# SF-295 CNS = test system: SF-295 CNS
# SF-539 CNS = test system: SF-539 CNS
# SK-MEL-2 melanoma = test system: SK-MEL-2 melanoma
# SK-MEL-28 melanoma = test system: SK-MEL-28 melanoma
# SK-MEL-5 melanoma = test system: SK-MEL-5 melanoma
# SK-OV-3 ovarian = test system: SK-OV-3 ovarian
# SN12C renal = test system: SN12C renal
# SNB-19 CNS = test system: SNB-19 CNS
# SNB-75 CNS = test system: SNB-75 CNS
# SW-620 colon = test system: SW-620 colon
# T-47D breast = test system: T-47D breast
# TK-10 renal = test system: TK-10 renal
# U251 CNS = test system: U251 CNS
# UACC-257 melanoma = test system: UACC-257 melanoma
# UACC-62 melanoma = test system: UACC-62 melanoma
# UO-31 renal = test system: UO-31 renal
smiles,measurement,setting,value
COc1nc2c(cc1S(=O)(=O)c1ccccc1)CCc1c-2cnn1Cc1ccccc1,GI50,786-0 renal,13.6 µM
same,TGI,786-0 renal,> 100 µM
same,GI50,A498 renal,2.7 µM
same,TGI,A498 renal,> 100 µM
same,GI50,A549 NSCLC,> 100 µM
same,TGI,A549 NSCLC,> 100 µM
same,GI50,ACHN renal,42.6 µM
same,TGI,ACHN renal,> 100 µM
same,GI50,BT-549 breast,8.07 µM
same,TGI,BT-549 breast,> 100 µM
same,GI50,CAKI-1 renal,5.02 µM
same,TGI,CAKI-1 renal,> 100 µM
same,GI50,CCRF-CEM leukemia,16.8 µM
same,TGI,CCRF-CEM leukemia,> 100 µM
same,GI50,COLO 205 colon,7.32 µM
same,TGI,COLO 205 colon,> 100 µM
same,GI50,EKVX NSCLC,14 µM
same,TGI,EKVX NSCLC,> 100 µM
same,GI50,HCC-2998 colon,25.3 µM
same,TGI,HCC-2998 colon,> 100 µM
same,GI50,HCT-116 colon,3.8 µM
same,TGI,HCT-116 colon,> 100 µM
same,GI50,HCT-15 colon,7.99 µM
same,TGI,HCT-15 colon,> 100 µM
same,GI50,HL-60(TB) leukemia,2.95 µM
same,TGI,HL-60(TB) leukemia,> 100 µM
same,GI50,HOP-62 NSCLC,17.7 µM
same,TGI,HOP-62 NSCLC,> 100 µM
same,GI50,HS 578T breast,13.3 µM
same,TGI,HS 578T breast,> 100 µM
same,GI50,HT29 colon,3.89 µM
same,TGI,HT29 colon,> 100 µM
same,GI50,IGROV1 ovarian,31.5 µM
same,TGI,IGROV1 ovarian,> 100 µM
same,GI50,K-562 leukemia,3.02 µM
same,TGI,K-562 leukemia,> 100 µM
same,GI50,KM12 colon,3.73 µM
same,TGI,KM12 colon,> 100 µM
same,GI50,LOX IMVI melanoma,> 100 µM
same,TGI,LOX IMVI melanoma,> 100 µM
same,GI50,M14 melanoma,> 100 µM
same,TGI,M14 melanoma,> 100 µM
same,GI50,MALME-3M melanoma,24.4 µM
same,TGI,MALME-3M melanoma,> 100 µM
same,GI50,MCF7 breast,3.48 µM
same,TGI,MCF7 breast,38.9 µM
same,GI50,MDA-MB-231 breast,> 100 µM
same,TGI,MDA-MB-231 breast,> 100 µM
same,GI50,MDA-MB-435,> 100 µM
same,TGI,MDA-MB-435,> 100 µM
same,GI50,MOLT-4 leukemia,5.48 µM
same,TGI,MOLT-4 leukemia,> 100 µM
same,GI50,NCI-H226 lung,35.8 µM
same,TGI,NCI-H226 lung,> 100 µM
same,GI50,NCI-H23 lung,8.45 µM
same,TGI,NCI-H23 lung,> 100 µM
same,GI50,NCI-H460 lung,7.06 µM
same,TGI,NCI-H460 lung,> 100 µM
same,GI50,NCI/ADR-RES ovarian,9.84 µM
same,TGI,NCI/ADR-RES ovarian,> 100 µM
same,GI50,OVCAR-3 ovarian,9.35 µM
same,TGI,OVCAR-3 ovarian,> 100 µM
same,GI50,OVCAR-4 ovarian,5.22 µM
same,TGI,OVCAR-4 ovarian,> 100 µM
same,GI50,OVCAR-5 ovarian,> 100 µM
same,TGI,OVCAR-5 ovarian,> 100 µM
same,GI50,OVCAR-8 ovarian,34.5 µM
same,TGI,OVCAR-8 ovarian,> 100 µM
same,GI50,PC-3 prostate,4.23 µM
same,TGI,PC-3 prostate,> 100 µM
same,GI50,RPMI-8226 leukemia,3.49 µM
same,TGI,RPMI-8226 leukemia,> 100 µM
same,GI50,RXF 393 renal,6.04 µM
same,TGI,RXF 393 renal,> 100 µM
same,GI50,SF-268 CNS,> 100 µM
same,TGI,SF-268 CNS,> 100 µM
same,GI50,SF-295 CNS,9.47 µM
same,TGI,SF-295 CNS,> 100 µM
same,GI50,SF-539 CNS,17 µM
same,TGI,SF-539 CNS,> 100 µM
same,GI50,SK-MEL-2 melanoma,30.4 µM
same,TGI,SK-MEL-2 melanoma,> 100 µM
same,GI50,SK-MEL-28 melanoma,> 100 µM
same,TGI,SK-MEL-28 melanoma,> 100 µM
same,GI50,SK-MEL-5 melanoma,2.89 µM
same,TGI,SK-MEL-5 melanoma,> 100 µM
same,GI50,SK-OV-3 ovarian,9.86 µM
same,TGI,SK-OV-3 ovarian,> 100 µM
same,GI50,SN12C renal,> 100 µM
same,TGI,SN12C renal,> 100 µM
same,GI50,SNB-19 CNS,> 100 µM
same,TGI,SNB-19 CNS,> 100 µM
same,GI50,SNB-75 CNS,20 µM
same,TGI,SNB-75 CNS,> 100 µM
same,GI50,SW-620 colon,> 100 µM
same,TGI,SW-620 colon,> 100 µM
same,GI50,T-47D breast,3.09 µM
same,TGI,T-47D breast,79.5 µM
same,GI50,TK-10 renal,> 100 µM
same,TGI,TK-10 renal,> 100 µM
same,GI50,U251 CNS,7.58 µM
same,TGI,U251 CNS,> 100 µM
same,GI50,UACC-257 melanoma,59.7 µM
same,TGI,UACC-257 melanoma,> 100 µM
same,GI50,UACC-62 melanoma,7.52 µM
same,TGI,UACC-62 melanoma,> 100 µM
same,GI50,UO-31 renal,4.3 µM
same,TGI,UO-31 renal,> 100 µM

# Source: PubChem BioAssay (NCI)
